The source of these data is patent US10543223B2, “Mannose derivatives useful for treating pathologies associated with adherent E. coli” (ENTEROME, priority 2015, dated 2020).

Converted amounts (≈) assume the structure as drawn.

For data set [1], the system named is uropathogenic E. coli strain UTI89. Briefly: Hemagglutination inhibition assay, guinea pig erythrocytes, E. coli strain UTI89. It is filed as cell-based. The conditions noted are these: for inhibition of UTI89-induced hemagglutination (in words): FIG. 1; for MIC: Escherichia coli, read-out: minimal inhibitory concentration (MIC) / inhibition titer of haemagglutination. On the procedure:
Interaction of E. coli FimH adhesins with the glycocalyx of guinea pig erythrocytes forms a crosslinked network in the wells. Glycoconjugates, added in a 2-fold dilution series, prevent the agglutination reaction. The inhibition titer is defined as the lowest concentration of the glycoconjugate at which hemagglutination is still inhibited. Several strains of E. coli were grown statically overnight in LB at 37° C., washed three times in ice-cold phosphate-buffered saline, and redissolved. A 2-fold dilution of glycoconjugates with a starting concentration of 1 mM was prepared in 25 μL of PBS with 10% of DMSO. Importantly, the pipet tip was changed at every dilution step to avoid carry-over. Next, the bacterial solution (25 μL) was added to the 2-fold dilution series of the compound. Finally, 50 μL of guinea pig red blood cells, washed and diluted in the buffer to 5% of the blood volume, was added to reach 100 μL. The plates were left on ice for one night before read-out.
Inhibition of E. coli Strain UTI89 Isolated from Patient with Urinary Tract Infection.
The anti-adhesive capacity of the inhibitors was evaluated against ten E. coli strains isolated from CD patients, urinary tract infections, and hip prosthesis infections.

In a further data set the test system is cystitis murine model. The conditions noted are these: Wellens et al, 2008; cited from earlier work.
The subject of the next data set is AIEC. The conditions noted are these: in vivo; cited from earlier work.
Data set [2] deals with T1, FimH lectin domain (residues 1-158) from E. coli strain UTI89 (Escherichia coli, UniProt Q1R2J4).
T1 construct: FimH lectin domain (residues 1-158) from E. coli strain UTI89; made in house
Briefly: Isothermal titration calorimetry of FimH lectin domain. In kind it is binding. On the procedure: The recombinantly expressed FimH lectin domain (residues 1-158) from E. coli strain UTI89 was purified as described previously by Wellens et al. The FimH protein solution was put into the measurement cell (1452 μl) of a VP-ITC microcalorimeter (Malvern), at a concentration of 11.83 μM in the ITC working buffer (20 mM Na-Hepes at pH 7.4 and 150 mM NaCl). Compound 3c at 100 μM concentration was titrated into the FimH solution using 38 injections of 7 μl, leading to 38 heat peaks measured in μcal/sec (FIG. 12). The heat peaks were integrated (kCal/mole of injectant) to be presented in an enthalpogram with 38 data points (FIG. 12), used for the fitting to the model of one kind of binding sites (Microcal ITC Origin software) in order to derive the affinity (K) and the stoichiometry (N) of the interaction (FIG. 13). Using the constant absolute temperature (T) of the experiment, the entropic contribution ΔS was calculated (FIG. 13).
In general terms: In ITC the heat of successive injections is recorded.

The next data set deals with AIEC strain LF82. Briefly: Adhesion assay of AIEC LF82 strain on intestinal epithelial cells T84 (pre- and post-incubation). It is filed as cell-based, E. coli. The following applies: pre-incubation (10 μM) and post-incubation (50 μM) protocols. As to the method:
E. coli strain LF82 isolated from an ileal biopsy of a CD patient was used as the AIEC reference strain. Bacteria were grown overnight at 37° C. in Luria-Bertani (LB) broth, and a bacterial suspension was prepared at a concentration of 1.5×10^8 bacteria/mL in phosphate buffer saline (PBS) for adhesion assays. The human intestinal cell line T84, purchased from American Type Culture Collection (ATCC, CCL-248), was maintained in an atmosphere containing 5% CO2 at 37° C. in the culture medium recommended by ATCC. T84 cells were seeded in 48-well tissue culture plates at a density of 1.5×10^5 cells/well and incubated at 37° C. for 48 h.
AIEC reference strain LF82 was incubated for 1 h with HM or thiazole-bearing mannosides at final concentrations of 0.1, 1, or 10 μM, then bacteria/mannosides solution were incubated with T84 cells in order to have a multiplicity of infection (MOI) of 10 bacteria per cell (1.5×10^6 bacteria/well) for 3 h with. Effects of mannoside treatment were compared with HM. Monolayers were washed three times with PBS and lysed with 1% Triton X-100 (Sigma) in deionized water. Samples were diluted and plated onto LB agar plates to determine the number of colony-forming units (CFU). […]

The nature of data set [3]: Stability test in 0.1 M HCl (anomerization followed by 1H NMR). The conditions noted are these: for isomerization to the β-mannose derivative under acidic conditions: samples at t=0, 1 h, 2 h and 8 h, 1H NMR in D2O. In kind it is physicochemical. On the procedure: Compound 6 of WO 2014/016361 was dissolved in 0.1 M HCl and sample were freeze dried at t=0, 1 h, 2 h and 8 h (see FIG. 10). […] Indeed, under the acidic conditions, an equimolar α/β mixture at T=0 anomerize to a 1/3 α/β mixture at T=8 h.

Data set [4] can be described thus: Faeces concentrations and recovery after IV and PO administration to rats. In kind it is in vivo, Sprague Dawley rats. The conditions noted are these: Sprague Dawley, rat, faeces, po, 10 mg/kg, PO 10 mg/kg, 0-24 h, mean of 3 rats; read-out: Recovery in faeces, mean (quantity found in faeces out of the administered quantity). On the procedure: Plasma and faeces concentrations after administration of Compound 1b and for compound 13 of WO 2014/016361 at 1 mg/kg by intravenous route and 10 mg/kg by oral route to Sprague Dawley rats Blank rat faeces are homogenized with 3 volumes of UHQ water until obtention of a paste. Then 100 μL of the homogenate are spiked with the molecules and precipitated with 300 μL of acetonitrile. The concentration ranges tested are: • 0.5 ng/mL to 1000 ng/mL for plasma, • 4 to 2000 ng/g for faeces, corresponding to 1 to 500 ng/mL of faeces homogenate. 3. In-Life Part After administration, the animals are placed in individual metabolic cages in order to collect faeces samples during 24 hours. Faeces samples are collected over the 24 hours of the experiment. They are precisely weighed and 3 volumes of UHQ water are added. The mixture is homogeneized until obtention of a paste. Then 100 μL of the homogenate are taken and extracted with 300 μL of Acetonitrile. Analysis is performed using LC-MS/MS determination according to previous analytical test results.

Take `CCCCCCCO[C@H]1O[C@H](CO)[C@@H](O)[C@H](O)[C@@H]1O` [HM, heptylmannose]: in data set [1], the “inhibition of UTI89-induced hemagglutination (in words)” value (“inhibition” below) is recorded as “potent inhibitors”. Also, the “concentration required to observe a significant bacterial load reduction” value with cystitis murine model is recorded as “millimolar”. Besides, the “effect with AIEC in CEABAC 10 Crohn's disease model” value in the data set on AIEC is “no effect”.

Turning to `CC(=O)c1cnc(NC[C@H]2O[C@H](CO)[C@@H](O)[C@H](O)[C@@H]2O)s1` [Compound 2c], in data set [1] (E. coli UTI89), the “potency relative to HM at disrupting E. coli promoted hemagglutination” value was 8 fold. In data set [1], the MIC is 0.098 µM (≈ 0.0312 µg/mL) and the “inhibition” value is recorded as “potent inhibitors”.

As to `Cc1nc(NCc2cn(CC3OC(CO)C(O)C(O)C3O)nn2)sc1C(=O)c1cnc(NCC2OC(CO)C(O)C(O)C2O)s1` (centres unmarked) [Compound 3c], in data set [2], binding was characterised by a dissociation constant (Kd) of 54.6 nM. For the same compound, the ΔH in data set [2] (ITC) was -23.630 ± 0.3755 kcal/mol. Moreover, the ΔS in data set [2] (ITC, calculated using T of the experiment) is given as −46.8 cal/mol/deg. The “n (stoichiometry)” value in data set [2] (ITC, one kind of binding sites model) was 0.874+/−0.00868 sites.

Consider `Cc1nc(-c2cnccn2)sc1C(=O)c1cnc(NC[C@H]2O[C@H](CO)[C@@H](O)[C@H](O)[C@@H]2O)s1` [Compound 2d, 5-(4-methyl-2-(pyrazin-2-yl)thiazol-5-ylcarbonyl)-2-(((α-D-mannopyranosyl)methyl)amino)-thiazole], for which, in data set [1], the MIC was 3.12 µM (≈ 1.5 µg/mL) and the “inhibition” value was “potent inhibitors”.

Consider `CC(=O)c1cnc(SC[C@H]2O[C@H](CO)[C@@H](O)[C@H](O)[C@@H]2O)s1` [Compound 2b, 5-acetyl-2-((α-D-mannopyranos-1-yl)methylthioxy)thiazole], for which the “potency to inhibit attachment of LF82 to T84 cells compared with heptylmannoside” value with AIEC strain LF82 was “more potent than the reference compound heptylmannoside”.

Regarding `CC(=O)c1cnc(C[C@H]2O[C@H](CO)[C@@H](O)[C@H](O)[C@@H]2O)s1` [Compound 1a, 5-acetyl-2-((α-D-mannopyranos-1-yl)methyl)thiazole], in data set [3], the “isomerization to the β-mannose derivative under acidic conditions” value is on record as “does not isomerize”.

Turning to `CC(=O)c1cnc(N[C@H]2O[C@H](CO)[C@@H](O)[C@H](O)[C@@H]2O)s1` [6 of WO 2014/016361], the α/β mixture ratio in data set [3] (T=8 h, equimolar α/β mixture at T=0) is 1/3. In addition, the “isomerization to the β-mannose derivative under acidic conditions” value in data set [3] was “isomerizes to the corresponding β-mannose derivative”.

With `Cc1nc(-c2cnccn2)sc1C(=O)c1cnc(N[C@H]2O[C@H](CO)[C@@H](O)[C@H](O)[C@@H]2O)s1` [Compound 13 of WO 2014/016361, reference compound], the dose excreted in data set [4] was found to be 52.4%.

What is called Kd is a measure of binding affinity in units of concentration. High values mean a looser complex, low ones a tighter complex.
